Measurements from patent US20260083743A1, “NUCLEOSIDE DERIVATIVE FOR PREVENTING AND TREATING INFLAMMATION AND APPLICATION THEREOF” (WEST CHINA HOSPITAL OF SICHUAN UNIVERSITY, priority 2019, published 2026).

How the values were obtained:
arthritis model = assay: Improvement effect on arthritis, sodium iodoacetate knee joint model in SD rats; type: in vivo; parameters: Pathological tissue score (joint): scale not given here; conditions: gavage every day 100 mg/kg/d; 4th week after operation; n = 10
Protocol: In this example, the improvement effect of compounds 1˜19 prepared in example 1 on arthritic was measured. (1) Animals: SD rats, four rates in one cage, were fed under the conditions of constant temperature (25±2° C.) and illumination control (12 h day/night circulation). The animals were fed with standard feed, and fed for at least 7 days to adapt environment before the experiment. […] (3) SD rats were fasted for 12 hours before operation, and weighed and recorded prior to operation. The blank control group was not treated any more. […] After anesthesia, they were fixed in the supine position. 0.1 ml of 1 g/L sodium iodoacetate solution was injected into the knee joint. From the fifth day, the animals were driven to run for 30 minutes every day, and they were allowed to move freely in the cage the rest of the time. After modeling, indomethacin and compounds 1˜19 were given by gavage every day at the dose of 100 mg/kg/d. The blank control group and the model control group were given equal volume of isotonic saline. At the 4th week after operation, the articular fluid of rats in each group was extracted to measure the content of MMP-13. The rats were killed, and the subchondral bone plate of the inner condyle of the tibia of the right knee was cut and processed into specimens, and pathological scores were made.

[1] = system: sodium taurocholate-induced pancreatitis model; assay: Improvement effect on pancreatitis, sodium taurocholate-induced model in mice; type: in vivo, Blab/c mice; parameters: Pancreatic histopathological injury score: scale not given here; conditions: 17.5 mg/kg caudal vein 1 h, 3 h and 6 h after model construction; after 24 hours; n = 10
Source text: In this example, the improvement effect of compounds 1 19 prepared in example 1 on […] measured. (1) Animals: Adult and Healthy Male Blab/c Mice, 25 30 g. […] A model was made with sodium taurocholate. […] After anesthesia, the surgical site was sterilized with an alcohol cotton ball. The sterile gauze was placed on the surgical site. A laparotomy was made at the width of two fingers under the xiphoid process. After seeing the liver, an incision was made, the cotton swab soaked in normal saline was stretched into the enterocoelia, the duodenum was sought on the back of the liver, turned out and placed on the sterile gauze, the pancreaticobiliary duct and duodenal papilla were sought, and the needle of 1 mL syringe was used to pierce a hole on the along the direction of the nipple, a 24 G indwelling needle tube was inserted into the pancreatic duct along the nipple, and the common bile duct below the liver was closed with an arterial vascular clip, with a dose of 0.1 mL/100 g and 0.1 mL/min inject sodium taurocholate with a concentration of 3.8% at a flow rate. During this process, pay attention to adding saline to the exposed pancreas and duodenum to keep it moist. After the injection, the tube was slowly taken out and the bile duct was continued to be closed. The main tube was removed from the vascular artery clip 3 minutes later, the duodenum was also accommodated, and the abdominal cavity was sutured in double layers. The blank control group was injected with equal volume of isotonic saline. […] The blank control group and the model control group were given equal volume of isotonic saline. After 24 hours, pancreatic tissue and blood samples were taken, and the pancreatic histopathological injury score and the level of pancreatic amylase in serum were evaluated.

mouse hepatitis model = assay: Improvement effect on hepatitis, concanavalin A (ConA) mouse hepatitis model; type: in vivo, Blab/c mice; conditions: gavage 50 mg/kg, n = 10
Protocol: In this example, the improvement effect of compounds 1 19 prepared in example 1 on […] measured. (1) Animals: Adult and Healthy Male Blab/c Mice, 25 30 g. […] The blank control group was injected with equal volume of isotonic saline. After modeling, indomethacin and compounds 1 19 were given by gavage every day at the dose of 50 mg/kg. The blank control group and the model control group were given equal volume of isotonic saline. Eyeball blood and liver tissue were taken at 6 h, 12 h, 24 h and 48 h after administration. The levels of serum alanine aminotransferase (ALT) and aspartate aminotransferase (AST) were measured.

SMILES | MMP-13 content in joint fluid (arthritis model) [mg/L] | Pathological tissue score (joint) (arthritis model) | Amylopsin (pancreatic amylase level in serum) [1] [KU/L] | Pancreatic histopathological injury score [1] | Aspartate aminotransferase (AST) (mouse hepatitis model; 6 h after administration) [U/L] | Serum alanine aminotransferase (ALT) (mouse hepatitis model; 6 h after administration) [U/L] | Aspartate aminotransferase (AST) (mouse hepatitis model; 12 h after administration) [U/L] | Serum alanine aminotransferase (ALT) (mouse hepatitis model; 12 h after administration) [U/L] | Serum alanine aminotransferase (ALT) (mouse hepatitis model; 24 h after administration) [U/L] | Aspartate aminotransferase (AST) (mouse hepatitis model; 48 h after administration) [U/L] | Serum alanine aminotransferase (ALT) (mouse hepatitis model; 48 h after administration) [U/L] | Aspartate aminotransferase (AST) (mouse hepatitis model; 24 h after administration) [U/L]
Cn1c(=O)c2c(ncn2C)n(C)c1=O [Caffeine, caffeine, reference compound] | 59 ± 8 | 2.6 ± 0.4 | 16 ± 2 | 2.6 ± 0.4 | 260 ± 31 | 590 ± 54 | 860 ± 91 | 1456 ± 132 | 2632 ± 321 | 943 ± 91 | 1432 ± 152 | –
CCn1c(=O)c2c(ncn2C)n(C)c1=O [Compound 1, 1-ethyl-3-7-dimethylxanthine] | 86 ± 4 | 0.2 ± 0.3 | 3 ± 1 | 0.4 ± 0.3 | 43 ± 7 | 56 ± 8 | 82 ± 8 | 97 ± 8 | 132 ± 12 | 89 ± 9 | 100 ± 12 | 104 ± 8
CC(C)n1c(=O)c2c(ncn2C)n(C)c1=O [Compound 2, 1-isopropyl-3,7-dimethylxanthine] | 92 ± 8 | 0.3 ± 0.4 | 4 ± 2 | 0.6 ± 0.2 | 53 ± 7 | 59 ± 8 | 89 ± 8 | 98 ± 6 | 142 ± 12 | 99 ± 9 | 112 ± 13 | 112 ± 10
CCn1c(=O)c2ncn(C)c2n(C)c1=O [Compound 3, 1-ethyl-3,9-dimethylxanthine] | 97 ± 4 | 0.6 ± 0.3 | 3 ± 2 | 0.5 ± 0.2 | 59 ± 7 | 67 ± 8 | 96 ± 8 | 102 ± 8 | 152 ± 14 | 103 ± 9 | 113 ± 12 | 114 ± 11
CCn1cnc2c1c(=O)n(C)c(=O)n2C [Compound 4, 1,3-dimethyl-7-ethylxanthine] | 102 ± 8 | 0.6 ± 0.4 | 11 ± 2 | 1.4 ± 0.4 | 65 ± 7 | 79 ± 8 | 91 ± 8 | 118 ± 9 | 142 ± 12 | 96 ± 9 | 105 ± 13 | 103 ± 9
CCn1c(=O)c2c(ncn2CC)n(C)c1=O [Compound 5, 1,7-diethyl-3-methylxanthine] | 99 ± 5 | 0.7 ± 0.3 | 3 ± 1 | 0.4 ± 0.2 | 71 ± 7 | 73 ± 8 | 93 ± 8 | 109 ± 8 | 136 ± 12 | 91 ± 9 | 105 ± 12 | 101 ± 8
CC(C)n1cnc2c(=O)[nH]cnc21 [Compound 6, 9-isopropyl hypoxanthine] | 90 ± 8 | 0.3 ± 0.4 | 2 ± 1 | 0.4 ± 0.1 | 49 ± 7 | 56 ± 5 | 86 ± 8 | 85 ± 6 | 136 ± 16 | 84 ± 8 | 103 ± 13 | 103 ± 9
CC(C)n1c(=O)c2c(ncn2C(C)C)n(C)c1=O [Compound 7, 1,7-diisopropyl-3-methylxanthine] | 84 ± 5 | 0.3 ± 0.3 | 4 ± 2 | 0.5 ± 0.2 | 41 ± 7 | 51 ± 8 | 78 ± 8 | 93 ± 8 | 131 ± 12 | 84 ± 7 | 95 ± 12 | 101 ± 8
CC(=O)OCCn1c(=O)c2c(ncn2C)n(C)c1=O [Compound 8, 1-(acetic acid-2-ethyl)-3,7-dimethylxanthine] | 92 ± 8 | 0.4 ± 0.5 | 5 ± 2 | 0.8 ± 0.4 | 68 ± 7 | 67 ± 8 | 95 ± 8 | 110 ± 13 | 172 ± 16 | 98 ± 9 | 132 ± 13 | 122 ± 12
